Patent US11931424B2, “Combination MCL-1 inhibitors with anti-body drug conjugates” (Gilead Sciences, Inc., priority 2021, dated 2024)

Experiments:
Format in all cases: cell-based
HCC1806 = assay: Compound A + paclitaxel cell viability combination assay (Cell Titer Glo, Bliss synergy); conditions: Homo sapiens, read-out: Percent Inhibition
Procedure: (§1) Cells were passaged according to ATCC guidelines with 0.25% Trypsin/EDTA (1× GIBCO-25200).
Viability assessments were performed using Cell Titer Glo™ (Promega #G9241) according to manufactures microwell plate protocol and read for luminescence on Synergy Neo2 plate reader.
For synergy matrix assays, TNBC cell lines were seeded 10,000 cells per well in clear-bottomed white 96-well plates (Corning #3909) in 100 μL of recommended cell culture medium. Plates were incubated at 37° C. and 100% RH for 20 hours prior to compound exposure.
Cells were then exposed to compound A with the same checkerboard matrix using D300 dispenser and incubated for 48 hours prior to measurement of viability by Cell Titer Glo.
(§2) Calculated values were compared to experimental results generated in the sixty-three-concentration checkerboard. Synergy or antagonism scores were generated depending on whether the observed growth inhibition was greater than or less than the calculated values, respectively.
These differences were summed up across the whole checker-board (sixty-three wells) to give cumulative synergy and antagonism scores with units of μM^2% to reflect the 2D surface of the dose responses.
(§3) Data for combination assays is presented in three formats.

[1] = system: panel of breast cancer cell lines; assay: Compound A with targeted agents and chemotherapies, 72-hour in vitro proliferation assays
HCC1187 (TNBC) = assay: Compound A + SN-38 cell viability combination assay (Cell Titer Glo, Bliss synergy); conditions: HCC1187, 1st Replicate (n = 5), 72 hours; SN-38 0.0000 μM; Compound A μM = c0 of the row
Source text: as §1, §2, §3

## CC(=O)O[C@H]1C(=O)[C@@]2(C)[C@H]([C@H](OC(=O)c3ccccc3)[C@]3(O)C[C@H](OC(=O)[C@H](O)[C@@H](NC(=O)c4ccccc4)c4ccccc4)C(C)=C1C3(C)C)[C@]1(OC(C)=O)CO[C@@H]1C[C@@H]2O [Paclitaxel, reference compound]
HCC1806
  inhibition at 0.0005 µM: 2.3%
  inhibition at 1 µM: 64.8%
  inhibition at 3 µM: 69.9%
[1]; 72 h
  Best CI: 0.32
[1]; AU565 cell line, compound A × partner, 72-hour proliferation
  Best CI: 0.19
[1]; BT-20 cell line, compound A × partner, 72-hour proliferation
  Best CI: 0.05
[1]; BT-474 cell line, compound A × partner, 72-hour proliferation
  Best CI: 0.16
[1]; BT-549 cell line, compound A × partner, 72-hour proliferation
  Best CI: 0.27
[1]; CAL-51 cell line, compound A × partner, 72-hour proliferation
  Best CI: 0.50
[1]; CAL-85-1 cell line, compound A × partner, 72-hour proliferation
  Best CI: 0.23
[1]; CAL-148 cell line, compound A × partner, 72-hour proliferation
  Best CI: 0.25
[1]; CAMA-1 cell line, compound A × partner, 72-hour proliferation
  Best CI: 0.05
[1]; DU-4475 cell line, compound A × partner, 72-hour proliferation
  Best CI: 0.57
[1]; EVSA-T cell line, compound A × partner, 72-hour proliferation
  Best CI: 0.26
[1]; HCC38, compound A × partner, 72-hour proliferation
  Best CI: 0.21
[1]; HCC70, compound A × partner, 72-hour proliferation
  Best CI: 0.14
[1]; HCC1143, compound A × partner, 72-hour proliferation
  Best CI: 0.35
[1]; HCC1569, compound A × partner, 72-hour proliferation
  Best CI: 0.41
[1]; HCC1806, compound A × partner, 72-hour proliferation
  Best CI: 0.10
[1]; HCC1937, compound A × partner, 72-hour proliferation
  Best CI: 0.18
[1]; HCC1954, compound A × partner, 72-hour proliferation
  Best CI: 0.05
[1]; HCC2218, compound A × partner, 72-hour proliferation
  Best CI: 0.55
[1]; HDQ-P1, compound A × partner, 72-hour proliferation
  Best CI: 0.82
[1]; HMC-1-8, compound A × partner, 72-hour proliferation
  Best CI: 0.11
[1]; JIMT-1, compound A × partner, 72-hour proliferation
  Best CI: 0.50
[1]; MCF7 cells, Compound A × partner agent, 72-hour proliferation
  Best CI: 0.32
[1]; MDA-MB-175-VII cells, Compound A × partner agent, 72-hour proliferation
  Best CI: 0.13
[1]; MDA-MB-231 cells, Compound A × partner agent, 72-hour proliferation
  Best CI: 0.33
[1]; MDA-MB-361 cells, Compound A × partner agent, 72-hour proliferation
  Best CI: 0.50
[1]; MDA-MB-436 cells, Compound A × partner agent, 72-hour proliferation
  Best CI: 0.68
[1]; MDA-MB-453 cells, Compound A × partner agent, 72-hour proliferation
  Best CI: 0.07
[1]; MDA-MB-468 cells, Compound A × partner agent, 72-hour proliferation
  Best CI: 0.27
[1]; SK-BR-3 cells, combination of compound A with the named agent, 72-hour proliferation
  Best CI: 0.70
[1]; SUM159PT cells, combination of compound A with the named agent, 72-hour proliferation
  Best CI: 0.06
[1]; T47D cells, combination of compound A with the named agent, 72-hour proliferation
  Best CI: 0.08
[1]; ZR-75-1 cells, combination of compound A with the named agent, 72-hour proliferation
  Best CI: 0.07
[1]; ZR-75-30 cells, combination of compound A with the named agent, 72-hour proliferation
  Best CI: 0.41

## COc1nn(C)cc1C(=O)N[S@@]1(=O)=NC(=O)c2ccc3c(c2)N(C[C@@H]2CC[C@H]2[C@@H](OC)/C=C/C[C@H](C)C1)C[C@@]1(CCCc2cc(Cl)ccc21)CO3 [Compound A, N-[(4S,7aR,9aR,10S,11E,14S)-6′-chloro-10-methoxy-14-methyl-16-oxido-18-oxo-3′,4′,7,7a,8,9,9a,10,13,14,15,18-dodecahydro-2′H-spiro[1,19-(ethanediylidene)-16λ^4-cyclobuta[i][1,4]oxazepino[3,4-f][1,2,7]thiadiazacyclohexadecine-4,1′-naphthalen]-16-yl]-3-methoxy-1-methyl-1H-pyrazole-4-carboxamide]
HCC1187 (TNBC)
  Percent Inhibition: 99.2%
